Data on 17 compounds can be found in US7632952B2, “Benzothiazoles and the use thereof as medicaments” (Aventis Pharma S.A., priority 2004, dated 2009).

The test addresses CDK2/cyclin E (Homo sapiens, UniProt P24941). Description: CDK2/cyclin E Flashplate test in 96-well format. The format is biochemical. The settings on record: read-out: CDK2 IC50. The method in brief: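 CDK2/cyclin E-(His)6 from baculovirus-coinfected Sf21 cells was IMAC-purified. Kinase reaction used biotinylated pRb peptide (10 μM final), [γ-33P]ATP in HEPES pH 7.5 with Mg2+ and DTT, at 30 °C in streptavidin Flashplates. 33P incorporation was scintillation counted and IC50 determined.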

SMILES strings stand for the structures. Counter-ions that a name gives are not always drawn.

As to `CC(=O)Nc1nc2ccc(OS(=O)(=O)c3ccc(NCCN(C(C)C)C(C)C)cc3)cc2s1` [Example 43, 4-(2-Diisopropylaminoethylamino)benzenesulfonic acid 2-acetylaminobenzothiazol-6-yl ester], the IC50 amounted to 49 nM.
As for `CNc1ccc(S(=O)(=O)Oc2ccc3nc(NC(=O)C4CC4)sc3c2)cc1` [Example 10, 4-methylaminobenzenesulfonic 2-(cyclopropane-carbonylamino)benzothiazol-6-yl ester], the figure is 92 nM; as for `CC(C)N(CCNc1ccc(S(=O)(=O)Oc2ccc3nc(NC(=O)C4(N)CCCC4)sc3c2)cc1)C(C)C` [Example 41, 4-(2-diisopropylaminoethylamino)benzenesulfonic acid 2-[(1-aminocyclopentanecarbonyl)amino]benzothiazol-6-yl ester], over 10000 nM; as for `COCC(=O)Nc1nc2ccc(OS(=O)(=O)c3ccc(NCCN(C(C)C)C(C)C)cc3)cc2s1` [Example 44, 4-(2-Diisopropylaminoethylamino)benzenesulfonic acid 2-(2-methoxyacetylamino)benzothiazol-6-yl ester], 108 nM.
With `CC(C)(CNc1ccc(S(=O)(=O)Oc2ccc3nc(NC(=O)C4CC4)sc3c2)cc1)OP(=O)(O)O` [Example 89, 4-(2-methyl-2-phosphonooxypropylamino)benzene-sulfonic acid 2-(cyclopropanecarbonylamino)benzothiazol-6-yl ester], the IC50 was determined as 105 nM.
As for `CC(C)N(CCNc1ccc(S(=O)(=O)Oc2ccc3nc(NC(=O)C4CCC4)sc3c2)cc1)C(C)C` [Example 60, 4-(2-diisopropylaminoethylamino)benzenesulfonic acid 2-(cyclobutanecarbonylamino)benzothiazol-6-yl ester hydrochloride], the figure is 105 nM; as for `CC(C)N(CCNc1ccc(S(=O)(=O)Oc2ccc3nc(NC(=O)C4CCCC4)sc3c2)cc1)C(C)C` [Example 45, 4-(2-Diisopropylaminoethylamino)benzenesulfonic acid 2-(cyclo-pentanecarbonylamino)benzothiazol-6-yl ester], 136 nM; as for `CCC(=O)Nc1nc2ccc(OS(=O)(=O)c3ccc(NCCN(C(C)C)C(C)C)cc3)cc2s1` [Example 57, 4-(2-diisopropylaminoethylamino)benzenesulfonic acid 2-propionylaminobenzothiazol-6-yl ester hydrochloride], 40 nM.
For `O=C(Nc1nc2ccc(OS(=O)(=O)c3cccs3)cc2s1)C1CC1` [Example 33h, Thiophene-2-sulfonic acid 2-(cyclopro-panecarbonylamino)benzothiazol-6-yl ester] the value was 6980 nM; for `CC(C)(O)CNc1ccc(S(=O)(=O)Oc2ccc3nc(NC(=O)C4CC4)sc3c2)cc1` [Example 11, 4-(2-hydroxy-2-methylpropylamino)benzene-sulfonic 2-(cyclopropanecarbonylamino)benzothiazol-6-yl ester], 19 nM.
For `CC(C)N(CCNc1ccc(S(=O)(=O)Oc2ccc3nc(NC(=O)C4CC4)sc3c2)cc1)C(C)C` [Example 12, 4-(2-diisopropylaminoethylamino)benzenesulfonic 2-(cyclopropanecarbonylamino)benzothiazol-6-yl ester], the half-inhibitory concentration (IC50) was found to be 25 nM.
As for `O=C(Nc1nc2ccc(OS(=O)(=O)c3ccc(-c4ccccn4)s3)cc2s1)C1CC1` [Example 85, 5-pyridin-2-ylthiophene-2-sulfonic acid 2-(cyclopropanecarbonylamino)benzothiazol-6-yl ester], the IC50 is over 10000 nM.
As to `CC(C)NCCNc1ccc(S(=O)(=O)Oc2ccc3nc(NC(=O)C4CC4)sc3c2)cc1` [Example 53, 4-(2-isopropylaminoethylamino)benzenesulfonic 2-(cyclopropanecarbonylamino)benzothiazol-6-yl ester hydrochloride], the 50% inhibitory concentration (IC50) was found to be 25 nM.
As to `CC(C)(O)CNc1ccc(S(=O)(=O)Oc2ccc3nc(NC(=O)CCc4cccnc4)sc3c2)cc1` [Example 63, 4-(2-hydroxy-2-methylpropylamino)benzene-sulfonic acid 2-(3-pyrid-3-ylpropionylamino)benzothiazol-6-yl ester hydro-chloride], the concentration for half-maximal inhibition (IC50) is 79 nM.
For `CC(C)C(=O)Nc1nc2ccc(OS(=O)(=O)c3ccc(NCCN(C(C)C)C(C)C)cc3)cc2s1` [Example 55, 4-(2-diisopropylaminoethylamino)benzenesulfonic acid 2-isobutyrylaminobenzothiazol-6-yl ester hydrochloride] the value was 73 nM.
With `O=C(Nc1nc2ccc(OS(=O)(=O)c3ccc(NCCCn4ccnc4)cc3)cc2s1)C1CC1` [Example 9, 4-(3-imidazol-1-ylpropylamino)benzenesulfonic 2-(cyclopropanecarbonylamino)benzothiazol-6-yl ester], the IC50 was 68 nM.
As for `CC(=O)Nc1nc2ccc(OS(=O)(=O)c3ccc(NCCNC(C)C)cc3)cc2s1` [Example 65, 4-(2-isopropylaminoethylamino)benzenesulfonic acid 2-acetylaminobenzothiazol-6-yl ester], the figure is 107 nM.

Usually IC50 stands for the concentration that inhibits the measured activity by half.
